{"source": "patent US7833722B2", "about": "“Ligands for G protein-coupled receptor protein and use thereof” (Takeda Pharmaceutical Company Limited, priority 2004, dated 2010)", "target": "GPR17-GFP fusion protein (UniProt P42212+Q13304, F64L/I167T/S65C)", "assay": "Movement of GPR17-GFP fusion protein expressed in CHO cells into cells (confocal microscope)", "assay_type": "cell-based, human", "conditions": "100 μM, 45 minutes, 37° C.", "data": [{"compound": "NCC(=O)CCC(=O)O", "note": "[ALA, 5-aminolevulinic acid]", "values": [{"measurement": "localization of GPR17-GFP fusion protein (fluorescent images of GFP)", "value": "moved in part to the cytoplasm"}]}]}
